In patent US20240199587A1, “HETEROCYCLIC COMPOUNDS” (Hoffmann-La Roche Inc., priority 2021, published 2024):

target: T1, MAGL (Homo sapiens, UniProt Q99685); test: 2-AG assay (MAGL inhibitory activity, hydrolysis of 2-arachidonoylglycerol to arachidonic acid followed by mass spectrometry); type: biochemical; conditions: 8 μM 2-arachidonoylglycerol, 15 min pre-incubation, 30 min incubation at RT, RapidFire MS readout
T1 sequence (Q99685 1-303): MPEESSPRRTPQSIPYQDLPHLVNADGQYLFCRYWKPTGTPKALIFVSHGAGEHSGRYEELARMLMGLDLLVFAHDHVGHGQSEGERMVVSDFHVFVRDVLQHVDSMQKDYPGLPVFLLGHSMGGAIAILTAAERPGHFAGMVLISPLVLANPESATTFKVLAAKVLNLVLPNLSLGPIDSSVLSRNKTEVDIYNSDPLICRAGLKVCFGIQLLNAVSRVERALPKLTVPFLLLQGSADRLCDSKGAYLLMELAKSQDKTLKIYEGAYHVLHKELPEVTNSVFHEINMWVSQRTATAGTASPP
Method in brief: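 Arachidonic acid released from 8 μM 2-arachidonoylglycerol was quantified by online SPE triple-quadrupole MS (negative ESI, 303.1→259.1), normalised to d8-arachidonic acid internal standard. Reaction ran 30 min at RT after 15 min RT compound pre-incubation with […] MAGL in TRIS/EDTA/Tween-20 buffer, 2.5% DMSO.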

Point of comparison: `O=C(N1CC2(CC(Oc3ccc(OC(F)F)nc3)C2)C1)N1CC2(CC(n3cnc(C4CC4)n3)C2)C1` [Example 56, (6-(3-cyclopropyl-1H-1,2,4-triazol-1-yl)-2-azaspiro[3.3]heptan-2-yl)(6-((6-(difluoromethoxy)pyridin-3-yl)oxy)-2-azaspiro[3.3]heptan-2-yl)methanone], IC50 2.5 nM. Against it:
- N#Cc1cccc(S(=O)(=O)N2CC3(CN(C(=O)N4CC5(CC(n6cnc(C7CC7)n6)C5)C4)C3)C2)c1 [Example 287, 3-[[6-[6-(3-cyclopropyl-1,2,4-triazol-1-yl)-2-azaspiro[3.3]heptane-2-carbonyl]-2,6-diazaspiro[3.3]heptan-2-yl]sulfonyl]benzonitrile] — 24-fold higher, 59.4 nM
- O=C(N1CC2(CC(n3cnc(C4CC4)n3)C2)C1)N1CC2(C1)CN(S(=O)(=O)N1CCCC1)C2 [Example 284, [6-(3-cyclopropyl-1,2,4-triazol-1-yl)-2-azaspiro[3.3]heptan-2-yl]-(2-pyrrolidin-1-ylsulfonyl-2,6-diazaspiro[3.3]heptan-6-yl)methanone] — 20-fold higher, 49.9 nM
- CS(=O)(=O)c1cc(F)ccc1CC1CC2(C1)CN(C(=O)N1CC3(CC(n4cnc(C5CC5)n4)C3)C1)C2 [Example 475, [6-(3-cyclopropyl-1,2,4-triazol-1-yl)-2-azaspiro[3.3]heptan-2-yl]-[6-[(4-fluoro-2-methylsulfonyl-phenyl)methyl]-2-azaspiro[3.3]heptan-2-yl]methanone] — 5.7-fold lower, 0.44 nM
- O=C(N1CC2(CC(Oc3cc(C(F)(F)F)ncn3)C2)C1)N1CC2(CC(n3cnc(C4CC4)n3)C2)C1 [Example 57, [6-(3-cyclopropyl-1,2,4-triazol-1-yl)-2-azaspiro[3.3]heptan-2-yl]-[6-[6-(trifluoromethyl)pyrimidin-4-yl]oxy-2-azaspiro[3.3]heptan-2-yl]methanone] — the same, 2.5 nM
- O=C(N1CC2(CC(Oc3ccc(F)c(F)c3)C2)C1)N1CC2(CC(n3cnc(C4CC4)n3)C2)C1 [Example 68, [6-(3-cyclopropyl-1,2,4-triazol-1-yl)-2-azaspiro[3.3]heptan-2-yl]-[6-(3,4-difluorophenoxy)-2-azaspiro[3.3]heptan-2-yl]methanone] — 2.8-fold lower, 0.9 nM
- N#Cc1ccc(OC2CC3(C2)CN(C(=O)N2CC4(CC(n5cnc(C6CC6)n5)C4)C2)C3)c(F)c1 [Example 111, 4-[[2-[6-(3-cyclopropyl-1,2,4-triazol-1-yl)-2-azaspiro[3.3]heptane-2-carbonyl]-2-azaspiro[3.3]heptan-6-yl]oxy]-3-fluoro-benzonitrile] — 1.7-fold higher, 4.3 nM
- O=C(N1CC2(CC(Cc3ccc(F)cn3)C2)C1)N1CC2(CC(n3cnc(C4CC4)n3)C2)C1 [Example 217, [6-(3-cyclopropyl-1,2,4-triazol-1-yl)-2-azaspiro[3.3]heptan-2-yl]-[6-[(5-fluoro-2-pyridyl)methyl]-2-azaspiro[3.3]heptan-2-yl]methanone] — within 1.5-fold, 2 nM
- CCc1ncn(C2CC3(C2)CN(C(=O)c2ccc(-c4noc(C(C)(C)C)n4)cc2)C3)n1 [Example 156, [4-(5-tert-butyl-1,2,4-oxadiazol-3-yl)phenyl]−[6-(3-ethyl-1,2,4-triazol-1-yl)-2-azaspiro[3.3]heptan-2-yl]methanone] — 14-fold higher, 33.9 nM
- CC(C)(C)c1nc(-c2ccc(C(=O)N3CC4(CC(n5cc(C6CC6)cn5)C4)C3)cc2)no1 [Example 7, [4-(5-tert-butyl-1,2,4-oxadiazol-3-yl)phenyl]-[6-(4-cyclopropylpyrazol-1-yl)-2-azaspiro[3.3]heptan-2-yl]methanone] — 86-fold higher, 215 nM
- CS(=O)(=O)c1ccc(COC2CN(C(=O)N3CC4(CC(n5cnc(C6CC6)n5)C4)C3)C2)c(F)c1 [Example 266, [6-(3-cyclopropyl-1,2,4-triazol-1-yl)-2-azaspiro[3.3]heptan-2-yl]-[3-[(2-fluoro-4-methylsulfonyl-phenyl)methoxy]azetidin-1-yl]methanone] — 12-fold higher, 29 nM
- O=C(N1CC(c2ccn(CC(F)(F)F)c(=O)c2)C1)N1CC2(CC(n3cnc(C4CC4)n3)C2)C1 [Example 261, 4-[1-[6-(3-cyclopropyl-1,2,4-triazol-1-yl)-2-azaspiro[3.3]heptane-2-carbonyl]azetidin-3-yl]-1-(2,2,2-trifluoroethyl)pyridin-2-one] — 9.7-fold higher, 24.2 nM
- CS(=O)(=O)c1ccccc1CN1CC2(C1)CN(C(=O)N1CC3(CC(n4cnc(C5CC5)n4)C3)C1)C2 [Example 502, [6-(3-cyclopropyl-1,2,4-triazol-1-yl)-2-azaspiro[3.3]heptan-2-yl]-[6-[(2-methylsulfonylphenyl)methyl]-2,6-diazaspiro[3.3]heptan-2-yl]methanone] — 4.8-fold higher, 12.1 nM
- CN(C)S(=O)(=O)N1CC2(CN(C(=O)N3CC4(CC(n5cnc(C6CC6)n5)C4)C3)C2)C1 [Example 314, 6-[6-(3-cyclopropyl-1,2,4-triazol-1-yl)-2-azaspiro[3.3]heptane-2-carbonyl]-N,N-dimethyl-2,6-diazaspiro[3.3]heptane-2-sulfonamide] — 92-fold higher, 229 nM
- O=C(N1CC(Oc2nnccc2C(F)(F)F)C1)N1CC2(CC(n3cnc(C4CC4)n3)C2)C1 [Example 322, [6-(3-cyclopropyl-1,2,4-triazol-1-yl)-2-azaspiro[3.3]heptan-2-yl]-[3-[4-(trifluoromethyl)pyridazin-3-yl]oxyazetidin-1-yl]methanone] — 140-fold higher, 340 nM
- O=C(N1C[C@H]2CC(Oc3ccc(F)cc3Cl)C[C@H]2C1)N1CC2(CC(n3cnc(C4CC4)c3)C2)C1 (mixture of isomers) [Example 91, [6-(4-cyclopropylimidazol-1-yl)-2-azaspiro[3.3]heptan-2-yl]-[rac-(3aR,6aS)-5-(2-chloro-4-fluoro-phenoxy)-3,3a,4,5,6,6a-hexahydro-1H-cyclopenta[c]pyrrol-2-yl]methanone] — 2.5-fold higher, 6.3 nM
- O=C(c1ccc(F)cc1C(F)(F)F)N1CC2(C1)CN(C(=O)N1CC3(CC(n4cnc(C5CC5)n4)C3)C1)C2 [Example 275, [2-[6-(3-cyclopropyl-1,2,4-triazol-1-yl)-2-azaspiro[3.3]heptane-2-carbonyl]-2,6-diazaspiro[3.3]heptan-6-yl]-[4-fluoro-2-(trifluoromethyl)phenyl] methanone] — 14-fold higher, 35.3 nM
- O=C(N1CC(Oc2cncc(C(F)(F)F)n2)C1)N1CC2(CC(n3cnc(C4CC4)n3)C2)C1 [Example 303, [6-(3-cyclopropyl-1,2,4-triazol-1-yl)-2-azaspiro[3.3]heptan-2-yl]-[3-[6-(trifluoromethyl)pyrazin-2-yl]oxyazetidin-1-yl]methanone] — 40-fold higher, 101 nM
- O=C(N1C[C@H]2C[C@H](Oc3c(F)cc(F)cc3F)C[C@H]2C1)N1CC2(CC(n3cnc(C4CC4)n3)C2)C1 [Example 124, [6-(3-cyclopropyl-1,2,4-triazol-1-yl)-2-azaspiro[3.3]heptan-2-yl]-[rac-(3aS,6aR)-5-(2,4,6-trifluorophenoxy)-3,3a,4,5,6,6a-hexahydro-1H-cyclopenta[c]pyrrol-2-yl]methanone] — 1.6-fold higher, 4 nM
- O=C(N1CC2(CC(n3cnc(C4CC4)n3)C2)C1)N1CC2(C1)CN(S(=O)(=O)c1cnccc1C(F)(F)F)C2 [Example 263, [6-(3-cyclopropyl-1,2,4-triazol-1-yl)-2-azaspiro[3.3]heptan-2-yl]-[2-[[4-(trifluoromethyl)-3-pyridyl]sulfonyl]-2,6-diazaspiro[3.3]heptan-6-yl]methanone] — 11-fold higher, 27.2 nM
- N#Cc1cc(C2CC2)ccc1OC1CN(C(=O)N2CC3(CC(n4cnc(C5CC5)n4)C3)C2)C1 [Example 188, 5-cyclopropyl-2-[1-[6-(3-cyclopropyl-1,2,4-triazol-1-yl)-2-azaspiro[3.3]heptane-2-carbonyl]azetidin-3-yl]oxy-benzonitrile] — 12-fold lower, 0.2 nM
- O=C(N1CC2(CC(n3cnc(C4CC4)n3)C2)C1)N1CC2(C1)CN(S(=O)(=O)c1cccc(OC(F)(F)F)c1)C2 [Example 233, [6-(3-cyclopropyl-1,2,4-triazol-1-yl)-2-azaspiro[3.3]heptan-2-yl]-[2-[3-(trifluoromethoxy)phenyl]sulfonyl-2,6-diazaspiro[3.3]heptan-6-yl]methanone] — 2.1-fold higher, 5.3 nM
- CC(C)(C)c1nc(-c2ccc(C(=O)N3CC4(CC(n5nccc5C(F)(F)F)C4)C3)cc2)no1 [Example 16, [4-(5-tert-buty1-1,2,4-oxadiazol-3-yl)phenyl]-[6-[5-(trifluoromethyl)pyrazol-1-yl]-2-azaspiro[3.3]heptan-2-yl]methanone] — 1100-fold higher, 2810 nM
- CS(=O)(=O)c1cc(F)cc(CC2CC3(C2)CN(C(=O)N2CC4(CC(n5cnc(C6CC6)n5)C4)C2)C3)c1 [Example 468, [6-(3-cyclopropyl-1,2,4-triazol-1-yl)-2-azaspiro[3.3]heptan-2-yl]-[6-[(3-fluoro-5-methylsulfonyl-phenyl)methyl]-2-azaspiro[3.3]heptan-2-yl]methanone] — 17-fold lower, 0.15 nM
- CC1(COc2ncc(C(=O)N3CC4(CC(n5cnc(C6CC6)c5)C4)C3)cc2F)CC1 [Example 30] — 43-fold higher, 108 nM
- O=C(N1CC(c2ccc(OC(F)(F)F)c(Cl)c2)C1)N1CC2(CC(n3cnc(C4CC4)c3)C2)C1 [Example 69] — within 1.5-fold, 2 nM
- O=C(N1CCC(CNS(=O)(=O)c2ccccc2)CC1)N1CC2(CC(n3cnc(C4CC4)n3)C2)C1 [Example 325, N-[[1-[6-(3-cyclopropyl-1,2,4-triazol-1-yl)-2-azaspiro[3.3]heptane-2-carbonyl]-4-piperidyl]methyl]benzene-sulfonamide] — 190-fold higher, 482 nM
